Positions of bridges follow the written chain, without caps; N, C: chain ends. Non-standard residues stand in square brackets, D forms with d. Residues, ends and D or L forms follow the SMILES beside them. Trp(1-CH2COOH) = N[C@@H](Cc1cn(CC(=O)O)c2ccccc12)C(=O)O; Hyp = O=C(O)[C@@H]1C[C@@H](O)CN1; NMeNle = CCCC[C@H](NC)C(=O)O; NMeA = CN[C@@H](C)C(=O)O; Pra = C#CC[C@H](N)C(=O)O
biological target: T1, PD-L1 (Homo sapiens, UniProt Q9NZQ7); assay: PD-1/PD-L1 Homogenous Time-Resolved Fluorescence (HTRF) binding assay (PD-1-Ig/PD-L1-His); conditions: inhibition of PD-1-Ig binding to PD-L1-TVMV-His; value given as range class; read-out: HTRF IC50
T1 construct: hPDL1(19-239)-TVMV-His; made in house; host or cells: HEK293T
T1 sequence (Q9NZQ7 with tags, fused parts or gaps): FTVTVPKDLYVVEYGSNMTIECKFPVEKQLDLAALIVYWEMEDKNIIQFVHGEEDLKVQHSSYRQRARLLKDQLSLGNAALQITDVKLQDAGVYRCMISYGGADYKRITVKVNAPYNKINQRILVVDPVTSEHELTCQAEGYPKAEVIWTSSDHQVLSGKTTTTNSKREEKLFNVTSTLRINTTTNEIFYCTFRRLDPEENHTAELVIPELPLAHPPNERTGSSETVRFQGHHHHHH
How it was run: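 HTRF competition in dPBS with 0.1% BSA and 0.05% Tween-20: 20 nM PD-1-Ig added after 15 min compound pre-incubation with 10 nM PD-L1-His, then another 15 min. Signal (665/620 nm) after 30 min with APC anti-His (20 nM) and Eu anti-Ig (1 nM).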

IC50 | SMILES
0.3 to 9.9 nM | C#CC[C@H](NC(=O)CNC(=O)[C@@H]1CSCC(=O)N[C@@H](Cc2ccc(O)cc2)C(=O)N(C)[C@@H](C)C(=O)N[C@@H](CC(=O)O)C(=O)N2CCC[C@H]2C(=O)N[C@@H](Cc2c[nH]cn2)C(=O)N[C@@H](CCC(N)=O)C(=O)N2C[C@H](O)C[C@H]2C(=O)N[C@@H](Cc2c[nH]c3ccccc23)C(=O)N[C@@H](CO)C(=O)N[C@@H](Cc2c[nH]c3ccccc23)C(=O)N(C)[C@@H](CCCC)C(=O)N(C)[C@@H](CCCC)C(=O)N[C@@H](CCC(=O)O)C(=O)N1)C(=O)NCC(N)=O [INT 1400C] ({CH2CO}-Y[NMeA]DPHQ[Hyp]WSW[NMeNle][NMeNle]ECG[Pra]G-NH2; thioether N-14)
0.3 to 9.9 nM | C#CC[C@H](NC(=O)CNC(=O)[C@@H]1CSCC(=O)N[C@@H](Cc2ccc(O)cc2)C(=O)N(C)[C@@H](C)C(=O)N[C@@H](CC(=O)O)C(=O)N2CCC[C@H]2C(=O)N[C@@H](Cc2c[nH]cn2)C(=O)N[C@@H](CCCCN)C(=O)N2C[C@H](O)C[C@H]2C(=O)N[C@@H](Cc2c[nH]c3ccccc23)C(=O)N[C@@H](CCCCN)C(=O)N[C@@H](Cc2cn(CC(=O)O)c3ccccc23)C(=O)N(C)[C@@H](CCCC)C(=O)N(C)[C@@H](CCCC)C(=O)N[C@@H](CCC(=O)O)C(=O)N1)C(=O)NCC(N)=O [INT 1400D] ({CH2CO}-Y[NMeA]DPHK[Hyp]WK[Trp(1-CH2COOH)][NMeNle][NMeNle]ECG[Pra]G-NH2; thioether N-14)
0.3 to 9.9 nM | C#CC[C@H](NC(=O)CNC(=O)[C@@H]1CSCC(=O)N[C@@H](Cc2ccc(O)cc2)C(=O)N(C)[C@@H](C)C(=O)N[C@@H](CC(=O)O)C(=O)N2CCC[C@H]2C(=O)N[C@@H](Cc2c[nH]cn2)C(=O)N[C@@H](CCCCN)C(=O)N2C[C@H](O)C[C@H]2C(=O)N[C@@H](Cc2c[nH]c3ccccc23)C(=O)N[C@@H](CCCCN)C(=O)N[C@@H](Cc2cn(CC(=O)O)c3ccccc23)C(=O)N(C)[C@@H](CCCC)C(=O)N(C)[C@@H](CCCC)C(=O)N[C@@H](CCC(=O)O)C(=O)N1)C(=O)N[C@@H](CC(=O)O)C(N)=O [INT 1400E] ({CH2CO}-Y[NMeA]DPHK[Hyp]WK[Trp(1-CH2COOH)][NMeNle][NMeNle]ECG[Pra]D-NH2; thioether N-14)
0.3 to 9.9 nM | C#CC[C@H](NC(=O)CNC(=O)[C@@H]1CSCC(=O)N[C@@H](Cc2ccc(O)cc2)C(=O)N(C)[C@@H](C)C(=O)N[C@@H](CC(=O)O)C(=O)N2CCC[C@H]2C(=O)N[C@@H](Cc2c[nH]cn2)C(=O)N[C@@H](CCCCN)C(=O)N2C[C@H](O)C[C@H]2C(=O)N[C@@H](Cc2c[nH]c3ccccc23)C(=O)N[C@@H](CCCCN)C(=O)N[C@@H](Cc2c[nH]c3ccccc23)C(=O)N(C)[C@@H](CCCC)C(=O)N(C)[C@@H](CCCC)C(=O)N[C@@H](CCC(=O)O)C(=O)N1)C(N)=O [INT 1400F, ClAc-Tyr-mAla-Asp-Pro-His-Lys-Hyp-Trp-Lys-Trp-mNle-mNle-Glu-Cys-Gly-[(S)-propargylglycine]] ({CH2CO}-Y[NMeA]DPHK[Hyp]WKW[NMeNle][NMeNle]ECG[Pra]-NH2; thioether N-14)
0.3 to 9.9 nM | C#CC[C@H](NC(=O)CNC(=O)[C@@H]1CSCC(=O)N[C@@H](Cc2ccc(O)cc2)C(=O)N(C)[C@@H](C)C(=O)N[C@@H](CC(=O)O)C(=O)N2CCC[C@H]2C(=O)N[C@@H](Cc2c[nH]cn2)C(=O)N[C@@H](CCC(N)=O)C(=O)N2C[C@H](O)C[C@H]2C(=O)N[C@@H](Cc2c[nH]c3ccccc23)C(=O)N[C@@H](CO)C(=O)N[C@@H](Cc2c[nH]c3ccccc23)C(=O)N(C)[C@@H](CCCC)C(=O)N(C)[C@@H](CCCC)C(=O)N[C@@H](CCC(=O)O)C(=O)N1)C(N)=O [INT 1400H, ClAc-Tyr-mAla-Asp-Pro-His-Gln-Hyp-Trp-Ser-Trp-mNle-mNle-Glu-Cys-Gly-[(S)-propargylglycine]] ({CH2CO}-Y[NMeA]DPHQ[Hyp]WSW[NMeNle][NMeNle]ECG[Pra]-NH2; thioether N-14)

— patent US10633419B2, “Immunomodulators” (BRISTOL-MYERS SQUIBB COMPANY, priority 2014, dated 2020)
